Article PMC6041393, “A Mechanistic Model for Predicting Cell Surface Presentation of Competing Peptides by MHC Class I Molecules” (Frontiers in Immunology, 2018)
Like-named read-outs stand apart in the source and are kept apart here.

Legend:
H-2Db [1] = molecular target: T1, H-2Db (Mus musculus, UniProt P01899); assay: Brefeldin A (BFA) decay assay of pMHC complexes at the cell surface; type: cell-based; set-up: endogenous in cells; host or cells: RMA-S (TAP2-deficient mouse T cell line); conditions: for t1/2 (peptide half-life of pMHC complex): BFA decay assay, RMA-S cells kept overnight at 26°C, pulsed with 20 μM peptide 1 h at 26°C, BFA added, decay at 37°C, B22 anti-H-2Db staining, flow cytometry, exponential fit; for Off-rates: converted from BFA decay half-life as log(2)/half-life (s)
T1 sequence (P01899 25-362): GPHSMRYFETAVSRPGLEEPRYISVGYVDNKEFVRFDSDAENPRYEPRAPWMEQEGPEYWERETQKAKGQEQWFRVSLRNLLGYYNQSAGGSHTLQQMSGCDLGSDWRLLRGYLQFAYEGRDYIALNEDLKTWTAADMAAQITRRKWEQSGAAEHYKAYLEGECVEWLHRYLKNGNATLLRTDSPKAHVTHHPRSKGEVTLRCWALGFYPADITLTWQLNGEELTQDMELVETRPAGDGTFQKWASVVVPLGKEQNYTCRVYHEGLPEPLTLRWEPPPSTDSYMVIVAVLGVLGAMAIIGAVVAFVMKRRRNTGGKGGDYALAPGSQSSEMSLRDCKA
T1 sequence (P01887 21-119 partner): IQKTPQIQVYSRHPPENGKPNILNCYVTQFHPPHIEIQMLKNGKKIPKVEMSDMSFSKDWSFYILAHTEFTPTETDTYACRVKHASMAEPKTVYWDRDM
Protocol: Dissociation of pMHC complexes at the cell surface was assessed by BFA decay assay as described previously ([17]). RMA-S cells were incubated overnight at 26°C to maximize MHC-I surface expression. After being washed, 5 × 10^5 cells per well of a 96-U-bottom plate were pulsed, at different time intervals, with peptides (final concentration of 20 μM) for 1 h at 26°C. After washing with medium, de novo transport of MHC-I to the cell surface was blocked by the addition of BFA, and peptide-loaded RMA-S cells were incubated at 37°C to allow decay of unstable molecules. Cells were washed in FACS buffer and stained with B22 primary monoclonal Abs (conformation sensitive anti-H-2Db MAb) and goat anti-mouse IgG-PE secondary Abs (Abcam, Cambridge, UK) to detect peptide-loaded MHC-I molecules. Samples were analyzed by flow cytometry on a Fortessa X20 flow cytometer (BD, Oxford, UK), and data were analyzed with the Diva software. MFI values were background deducted by subtracting the MFI value obtained in the DMSO control at the last time point. Half-lives and off-rate constants were then determined by fitting the curves using an exponential trend line in the Excel software (Microsoft, USA).
We experimentally measured the stability of pMHC complexes by following their decay from the cell surface over time (“BFA decay assay” in Figure 2A), and used these measurements to calculate the corresponding unbinding rates of the peptides from MHC (Table 1; Figure S3 in Supplementary Material). Finally, to incorporate the effect of IFNγ into the model, we specified a new parameter (γ) that quantifies the increased supply of MHC and tapasin following IFNγ treatment.

E10 Fab = E10 Fab surface staining of peptide-pulsed RMA-S cells (flow cytometry); type: binding; conditions: flow cytometry surface staining of RMA-S cells pulsed with peptides
B44:02 = system: B44:02; set-up: method as in PMID 26375851; conditions: B lymphoblastoid cell lines; cited from earlier work
H-2Db [2] = molecular target: T1, H-2Db; assay: pMHC competition assay in co-transfected B6 fibroblasts; surface pMHC quantified with Qifikit beads, cytoplasmic peptide with mCherry beads; type: cell-based; conditions: for change of surface expression of peptide–H2Db complexes with IFNγ: fibroblasts treated with IFNγ for 48 h versus untreated; for number of pMHC complexes presented on the cell surface: untreated fibroblasts, 1C3 Mab, Qifikit calibration beads; for surface expression of ASN variant–H2Db: IFNγ-treated fibroblasts, E10 Fab staining
Protocol: Fibroblasts were seeded at 2 × 10^5 cells per 6 cm diameter Petri dish. When IFNγ treatment was applied, 1 µg of mouse IFNγ (Peprotech, Rocky Hill, USA) was added per Petri dish 4 h after seeding. Cells were transfected the following day with TransIT-LT1 (Mirus, Madison, USA) following the manufacturer’s recommendations using 2.5 µg of each Venus-Ub-peptide and mCherry-Ub-peptide constructs. 1 day after transfection cells were stained for 45 min on ice with primary reagents, 1C3 hybrid Mab neat supernatant, E10 purified Fab, B22, or Y3 purified Mabs to detect surface pMHC complexes. After washing, cells were incubated for 45 min with AF647-conjugated goat anti-human IgG (used after Fab primary) or goat anti-mouse (after mouse antibodies including 1C3) (Invitrogen/Molecular Probes, Eugene, USA). Flow cytometry was performed using a Fortessa X20 cytometer (BD) and the data were analyzed using FACS Diva software (BD).
mCherry flow cytometry calibration beads (Clontech/Takara, USA) were used, as recommended by the manufacturer, to calibrate the amount of mCherry molecules, equivalent to the number of peptide molecules expressed in the transfected cells. Beads were run through the flow cytometer using the same setup as for acquiring cells.
The number of […]-H2Db complexes presented on the cell surface was estimated using Qifikit beads (Dako, Glostrup, Denmark). Beads were treated as recommended by the manufacturer but stained with AF647-conjugated goat anti-mouse IgG (Invitrogen) at the same dilution as used to detect the 1C3 Mab on transfected cells. A calibration curve was drawn by plotting the MFI of the 5 peaks (x-axis) versus the lot-specific numbers of antibody molecules per bead (y-axis). The curve was then used to calculate the number of […]-H2Db complexes presented on the cell surface expressed in antibody-binding capacity units (number of primary mouse monoclonal antibodies per cell).
To establish how variation in the intracellular abundance of competing peptides influences cell surface presentation, we developed an assay in which intracellular peptide supply and pMHC cell surface abundance could be measured simultaneously (Figure 1A), assay adapted from Ref. ([35]). Furthermore, this method measures the abundance of peptides actually presented at the surface of living cells and not, as for quantitative high-throughput methods, the abundance of peptides remaining bound to MHC after biochemical purification of pMHC I complexes from cell lysates. Two fluorescent fusion proteins, Venus-ubiquitin-[…] (faster off-rate, see Table 1) and mCherry-ubiquitin-[…] (slower off-rate) are co-expressed in fibroblasts. Once expressed in the cytoplasm, the fusion proteins are cleaved by endogenous cytoplasmic ubiquitin hydrolases, releasing the peptides at an equimolecular ratio to their respective fluorescent reporter protein (Figure 1A) that can be quantified by flow cytometry ([36]) (Figure S1 in Supplementary Material). Using this system, the generation of peptides bypasses the proteasome. After translocation into the ER, peptides compete for loading onto MHC-I molecules and are transported to the cell surface where they can be quantified by flow cytometry (Figure 1A). Both fusion proteins were naturally expressed at a broad range of concentrations after transient transfection, allowing in a single experiment to compare peptide surface presentation in cells expressing low to high levels of both fusion proteins (Figure 1B). To analyze competition between both peptides, cells were partitioned into different gates according to their expression level of mCherry, reporter for the level of expression of […], and Venus, reporter for the level of […] (Figure 1B). Competition was then assessed by plotting surface expression of […]-H2Db as a function of increasing cytoplasmic expression of the […] target peptide for increasing levels of competing peptide (Venus levels 1–7 in Figure 1B). […]

NIT-1 insulinoma cells = conditions: cited from earlier work; for enhancement of presentation by IFNγ: NIT-1 cells
Excerpt: IFNγ is well known to stimulate the immune system, increasing expression of MHC-I heavy chain, β2-microglobulin, subunits of the immunoproteasome (MECL1, LMP2, and LMP7), TAP, tapasin, the ER aminopeptidase associated with antigen processing (ERAAP) ([41]) and the tapasin-related protein (TAPBPR); it is produced as part of the immune response against viruses. ...

H-2Dd = H-2Dd (Mus musculus, UniProt P01900); conditions: H-2Dd binding CT26 epitope; cited from earlier work
[3] = mCherry-SSLENFRAYV at around 10^4 MFI units
[4] = NIT-1 cells after IFNγ treatment

Row | Sequence | t1/2 (peptide half-life of pMHC complex) (H-2Db [1]) [min] | Off-rates (H-2Db [1]) [s⁻¹] | E10 score (E10 Fab binding to peptide–H2Db complexes) (E10 Fab) [MFI/1000] | further results
1 | ASIENLETM | 502 | 2.3e-05 | 1.8 | –
2 | AETPDIKLF [human peptide derived from the RS5 protein, eluted from B44:02 complexes] | – | – | – | copies eluted from B44:02 complexes (B44:02): around 45,000 copies
3 | ASNENMETM | 223 | 5.2e-05 | 11.5 | change of surface expression of peptide–H2Db complexes with IFNγ (H-2Db [2]): increased around fourfold; ASNENMETM expression required to inhibit SSLENFRAYV presentation by 50%, with IFNγ compared to non-IFNγ-treated cells (H-2Db [2]; [3]): around ten times more
4 | SSLENFRAYV | 408 | 2.8e-05 | 3.8 | change of surface expression of peptide–H2Db complexes with IFNγ (H-2Db [2]): increased around fourfold; cytoplasmic expression at which surface expression could be detected (H-2Db [2]; mCherry calibration beads): ~10^6 copies per cell; cytoplasmic expression in transfected cells (H-2Db [2]; mCherry calibration beads, maximum): up to 10^8 copies per cell; cell surface abundance in the absence of competitor (H-2Db [2]; [3]): around 4 × 10^4 complexes; copies expressed at the cell surface in the absence of competition (H-2Db [2]; mCherry-SSLENFRAYV at around 10^4 MFI units, printed in brackets after non-IFNγ-treated cells): 25 × 10^4 copies; number of pMHC complexes presented on the cell surface (H-2Db [2]; absence of ASNENMETM competition): up to 80,000 pMHC complexes; number of pMHC complexes presented on the cell surface (H-2Db [2]; highest level of ASNENMETM competitor): ≤ 10,000 pMHC complexes
5 | VYLKTNVFK | – | – | – | presentation, copies per cell (NIT-1 insulinoma cells; [4]): 25 copies per cell; enhancement of presentation by IFNγ (NIT-1 insulinoma cells): 25 fold increase; presentation, copies per cell (NIT-1 insulinoma cells; untreated NIT-1 cells): 1 copies per cell
6 | ASIENMETM | 456 | 2.5e-05 | 8.9 | –
7 | GGPESFYCASW | – | – | – | half-life (H-2Dd): 20 min
8 | ASNENLETM | 238 | 4.9e-05 | 4.1 | –
9 | ASNENMETV | 132 | 8.8e-05 | 16.8 | surface expression of ASN variant–H2Db (H-2Db [2]): unable to reach or remain at the cell surface at detectable levels
10 | ASNENMETI | 212 | 5.4e-05 | 13.1 | –
11 | ASNENMETA | 52 | 0.00022 | 14.2 | surface expression of ASN variant–H2Db (H-2Db [2]): unable to reach or remain at the cell surface at detectable levels
12 | ASNEAMETM | 43 | 0.00027 | 8.2 | surface expression of ASN variant–H2Db (H-2Db [2]): unable to reach or remain at the cell surface at detectable levels
13 | ASNENMETL | 191 | 6.1e-05 | 11.8 | –
14 | SYFPEITHI | – | – | – | presentation, copies per cell (NIT-1 insulinoma cells; [4]): ~ 15,000 copies per cell; enhancement of presentation by IFNγ (NIT-1 insulinoma cells): 7.5 fold increase; presentation, copies per cell (NIT-1 insulinoma cells; untreated NIT-1 cells): ~ 2,000 copies per cell
